Data reported in publication PMC9133036 (Nature Communications, 2022).
Residue numbers refer to the chain shown, from its start. Values joined by “and” are separate entries in the source; they are usually repeats but may differ in a detail not shown here. Equal values may be shown once. “Also recorded” adds a separate entry of the source. One block for each molecule: values may come before it.

Tests used:
Assay type in all cases: cell-based
OX2R N324A = biological target: T1, OX2R N324A (Homo sapiens, UniProt O43614, N324A); experiment: IP accumulation assay, OX2R N324A;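 for % IP accumulation: 100% equals the maximal response of wild-type OX2R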
T1 construct: FLAG; expressed in transfected cells; host or cells: HEK293
T1 sequence (O43614 1-444 N324A): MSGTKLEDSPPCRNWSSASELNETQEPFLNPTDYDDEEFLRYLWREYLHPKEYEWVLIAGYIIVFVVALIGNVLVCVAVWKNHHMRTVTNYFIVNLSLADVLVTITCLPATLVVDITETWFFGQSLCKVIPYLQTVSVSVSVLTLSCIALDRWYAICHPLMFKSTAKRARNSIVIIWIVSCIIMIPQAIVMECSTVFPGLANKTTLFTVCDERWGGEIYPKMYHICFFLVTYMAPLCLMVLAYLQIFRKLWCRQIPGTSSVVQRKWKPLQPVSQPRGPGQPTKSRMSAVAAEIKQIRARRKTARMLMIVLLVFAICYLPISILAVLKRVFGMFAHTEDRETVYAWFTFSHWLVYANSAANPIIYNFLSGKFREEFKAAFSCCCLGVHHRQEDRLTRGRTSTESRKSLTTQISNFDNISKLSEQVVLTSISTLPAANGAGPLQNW
Text: The IP assay was adapted from a prior precedent. HEK293 cells were maintained in DMEM-high glucose (Millipore Sigma) supplemented with 5% fetal bovine serum (Corning) and penicillin-streptomycin (Millipore Sigma). Receptor constructs used were the full-length wild-type (or mutant) human OX1R and OX2R sequences cloned into pCDNA3. To enhance the Emax in the IP assay, a plasmid encoding full-length human Gαq subunit[66] was co-transfected into HEK293 cells with plasmids encoding orexin receptor constructs using Lipofectamine 3000 (Thermo Fisher). 24 h after transfection, the cells were plated on poly-D-lysine coated (Millipore Sigma) tissue culture-treated 96 well white plates with clear bottoms (Perkin Elmer) at 30,000 cells per well in Inositol-free DMEM (MP Biomedicals) supplemented with 5% fetal bovine serum, 4 mM L-glutamine (Millipore Sigma), penicillin-streptomycin, and about 5 uCi (5 ul) per ml myo-[2-3H] inositol (Perkin Elmer). The following day, the media was replaced with agonists that were diluted in HBSS (Millipore Sigma) containing 10 mM lithium chloride (Millipore Sigma) and incubated at 37 °C for 45 min. Then agonists were removed and cells were lysed on ice for 30 min with 10 mM formic acid (Millipore Sigma). 1.25 mg of poly-lysine coated YSI SPA beads (Perkin Elmer) was added to each well. The plates were mixed on an orbital shaker for 30 min. The plates were read on a MicroBeta scintillation counter (Perkin Elmer) the following day. IP accumulation assays on different constructs were performed in n ≥ 3 independent experiments (each done in duplicate), where n is shown in Supplementary Table 2.

OX2R V114A = biological target: T2, OX2R V114A (Homo sapiens, UniProt O43614, V114A); experiment: β-arrestin PathHunter assay, OX2R V114A
T2 construct: expressed in transfected cells; host or cells: CHO-K1 stably expressing EA β-arrestin2
Procedure: β-Arrestin recruitment activity was measured by using the PathHunter system (DiscoveRX) according to the manufacturer’s instruction. Receptor constructs used were the full-length wild-type (or mutant) human OX2R sequences cloned into pCMV-ProLink (DiscoveRX). CHO-K1 cells stably expressing EA β-arrestin2 (DiscoveRX) were plated on 384 well white plates (Thermo Fisher) at 4000 cells/well in HamF12 (Wako Pure Chemical Industries) supplemented with 10% fetal bovine serum (Corning) and penicillin-streptomycin (Wako Pure Chemical Industries) and incubated overnight at 37 °C under 5% CO2. Cells were transfected with plasmids encoding wild type or each mutant ProLink-tagged human OX2R using FuGENE HD (Promega). […] Detection reagent was added and incubated for 1 h at room temperature. Luminescent signal was detected using an EnVision plate reader (PerkinElmer). β-arrestin assays on different constructs were performed in two or three independent experiments (each done in quadruplicate). Dose response curves (shown in Supplementary Fig. 8) were fitted to the three-parameter model ‘log(agonist) vs response’ in GraphPad Prism to determine pEC50 values.

human OX2R = biological target: T3, human OX2R (Homo sapiens, UniProt O43614); experiment: Inhibition of forskolin-stimulated cAMP production (Gi signaling), OX2R + Gαi1; details: for stimulation of Gi1 as reduction in cAMP levels after forskolin treatment: HEK293 cells transfected with OX2R and Gαi1; for % Forskolin stimulation: OX2R + Gi
T3 construct: expressed in transfected cells; host or cells: HEK293
T3 sequence (O43614 1-444): T1 sequence (O43614 1-444 N324A) with A324N
Procedure: To measure Gi signaling[67], HEK293 cells were transfected with pGloSensor™−22F cAMP Plasmid (Promega) and CMV expression plasmid encoding human OX2R. To enhance the signal for the cAMP assay, we co-transfected a Gi expression plasmid (CMV-driven) in which the full-length human Gαi1 subunit sequence was cloned into pcDNA3. The following day, cells were harvested and washed with assay buffer, HBSS with 20 mM HEPES pH 7.4 (Millipore Sigma). Cells were suspended in assay buffer containing 0.5 mg/ml Luciferin (Gold Biotechnology) and plated on 96 well tissue culture-treated white plates with opaque bottoms (Thermo Fisher). The cells were incubated at 37 °C for 90 min. Forskolin (Millipore Sigma) diluted in assay buffer was added to wells for a final concentration of 5 mM. Luminescence was read at room temperature repeatedly in a CLARIOstar microplate reader (BMG Labtech) until the signal stopped increasing. Agonist diluted in assay buffer was added from a 7X stock and again the plates were read repeatedly until the signal was stable.

T2 sequence (O43614 whole entry V114A): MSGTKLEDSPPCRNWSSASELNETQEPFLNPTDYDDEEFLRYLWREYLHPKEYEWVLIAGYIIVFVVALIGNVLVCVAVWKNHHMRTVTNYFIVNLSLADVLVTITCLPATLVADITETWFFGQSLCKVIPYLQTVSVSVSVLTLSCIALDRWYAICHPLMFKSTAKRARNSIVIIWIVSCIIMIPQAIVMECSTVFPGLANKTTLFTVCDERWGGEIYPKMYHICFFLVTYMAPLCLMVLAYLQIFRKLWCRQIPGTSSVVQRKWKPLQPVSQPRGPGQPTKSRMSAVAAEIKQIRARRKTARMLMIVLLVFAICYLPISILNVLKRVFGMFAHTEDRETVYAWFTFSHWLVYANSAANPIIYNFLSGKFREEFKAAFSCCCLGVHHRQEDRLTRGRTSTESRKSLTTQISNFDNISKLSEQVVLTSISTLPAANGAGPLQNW

Molecule: orexin B
activation of the mutant receptor (OX2R N324A; Gq signaling, IP accumulation): fails to activate
% IP accumulation (OX2R N324A; OXB conc (log, M) -6.95, listed as OXB): 32.75% and 37.01% and 40.09%
% IP accumulation (OX2R N324A; OXB conc (log, M) -7.43, listed as OXB): 25.51% and 22.88% and 29.36%
% IP accumulation (OX2R N324A; OXB conc (log, M) -7.91, listed as OXB): 19.13% and 21.90% and 18.40%
% IP accumulation (OX2R N324A; OXB conc (log, M) -8.39, listed as OXB): 9.56% and 13.73% and 13.07%
% IP accumulation (OX2R N324A; OXB conc (log, M) -8.86, listed as OXB): 3.38% and 9.31% and 7.17%
% IP accumulation (OX2R N324A; OXB conc (log, M) -9.34, listed as OXB): 7.35% and 10.16% and 5.28%
% IP accumulation (OX2R N324A; OXB conc (log, M) -9.82, listed as OXB): 3.06% and 4.95% and 0.00%
% IP accumulation (OX2R N324A; OXB conc (log, M) -10.29, listed as OXB): 0.00% and 2.10%
beta-arrestin recruitment fold change (OX2R V114A; V114A, OxB concentration -8.00 (log, M), listed as OxB): 1.594 fold and 2.704 fold and 1.365 fold and 1.888 fold
stimulation of Gi1 as reduction in cAMP levels after forskolin treatment (human OX2R): poor ability to stimulate Gi1; also recorded: minimal diminution of cAMP signal
% Forskolin stimulation (human OX2R; log [Agonist] -5.00, listed as OXB): 62.35% and 75.49% and 85.20%
% Forskolin stimulation (human OX2R; log [Agonist] -5.52, listed as OXB): 65.51% and 74.64% and 79.34%
% Forskolin stimulation (human OX2R; log [Agonist] -6.00, listed as OXB): 67.69% and 72.61% and 81.55%
% Forskolin stimulation (human OX2R; log [Agonist] -6.52, listed as OXB): 83.40% and 83.94% and 91.79%
% Forskolin stimulation (human OX2R; log [Agonist] -7.00, listed as OXB): 104.15% and 101.20% and 102.30%
% Forskolin stimulation (human OX2R; log [Agonist] -7.52, listed as OXB): 105.47% and 101.46% and 103.50%
% Forskolin stimulation (human OX2R; log [Agonist] -8.00, listed as OXB): 105.90% and 100.54% and 102.29%
% Forskolin stimulation (human OX2R; log [Agonist] -8.52, listed as OXB): 101.42% and 105.57% and 98.48%

EC50 (OX2R N324A; IP accumulation): 0.018 µM
% IP accumulation (OX2R N324A; TAK-925 conc (log, M) -4.52): 38.90% and 50.17% and 61.68%
% IP accumulation (OX2R N324A; TAK-925 conc (log, M) -5.00): 44.83% and 48.29% and 62.09%
% IP accumulation (OX2R N324A; TAK-925 conc (log, M) -5.48): 54.68% and 49.83% and 60.54%
% IP accumulation (OX2R N324A; TAK-925 conc (log, M) -5.95): 62.62% and 51.37% and 66.38%
% IP accumulation (OX2R N324A; TAK-925 conc (log, M) -6.43): 60.89% and 49.04% and 58.43%
% IP accumulation (OX2R N324A; TAK-925 conc (log, M) -6.91): 55.51% and 43.02% and 53.52%
% IP accumulation (OX2R N324A; TAK-925 conc (log, M) -7.39): 29.79% and 34.77% and 41.19%
% IP accumulation (OX2R N324A; TAK-925 conc (log, M) -7.86): 20.98% and 26.21% and 25.22%
% IP accumulation (OX2R N324A; TAK-925 conc (log, M) -8.34): 10.23% and 11.60% and 16.93%
% IP accumulation (OX2R N324A; TAK-925 conc (log, M) -8.82): 0.00% and 5.30%
% IP accumulation (OX2R N324A; TAK-925 conc (log, M) -9.29): 0.24% and 0.00% and 4.28%
Emax (OX2R N324A; relative to OX2R WT/TAK-925): 55
EC50 (OX2R V114A; β-arrestin recruitment): 2.2 µM
% Forskolin stimulation (human OX2R; log [Agonist] -5.00): 72.69% and 86.21% and 88.94%
% Forskolin stimulation (human OX2R; log [Agonist] -5.52): 88.35% and 93.40% and 97.54%
% Forskolin stimulation (human OX2R; log [Agonist] -6.00): 94.60% and 96.68% and 103.97%
% Forskolin stimulation (human OX2R; log [Agonist] -6.52): 100.56% and 102.28% and 109.64%
% Forskolin stimulation (human OX2R; log [Agonist] -7.00): 100.76% and 107.19% and 105.95%
% Forskolin stimulation (human OX2R; log [Agonist] -7.52): 105.87% and 108.11% and 120.96%
% Forskolin stimulation (human OX2R; log [Agonist] -8.00): 107.95% and 108.44% and 107.03%
% Forskolin stimulation (human OX2R; log [Agonist] -8.52): 103.47% and 109.30% and 118.87%
Molecule: COC(=O)N1CCC[C@H](NS(C)(=O)=O)[C@@H]1CO[C@H]1CC[C@@H](c2ccccc2)CC1 [TAK-925, methyl (2R,3S)−3-[(methylsulfonyl)amino]−2-{[(cis−4-phenylcyclohexyl)oxy]methyl}piperidine-1-carboxylate]
stimulation of Gi1 as reduction in cAMP levels after forskolin treatment (human OX2R): poor ability to stimulate Gi1; also recorded: minimal diminution of cAMP signal
